PubChem BioAssay AID1963860 (Molecular Pharmacology Branch, DTP, NCI, 2024)

System: CN0375-F725-PDC KRAS spheroid viability
Assay: Anticancer human tumor CN0375-F725-PDC patient-derived colon carcinoma cell line growth inhibition [KRAS2]
Conditions: spheroids with HUVEC and MSC; for viability, T/C: stronger effect = lower value
Procedure, shortened: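 Combination screen of spheroid viability in tumor-cell co-cultures with endothelial (HUVEC) and mesenchymal stem cell stroma. Each agent was tested in half-log dilutions, topping at clinical Cmax or at 10 microM without a known Cmax.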

[1] = curve of first compound, second compound 0.1 µM
[2] = curve of first compound, second compound 0.316 µM
[3] = curve of first compound, second compound 1 µM
[4] = curve of first compound, second compound 3.16 µM
[5] = curve of first compound, second compound 10 µM
[6] = second compound 0.1 µM, first compound 0.0316 µM
[7] = second compound 0.1 µM, first compound 0.1 µM
[8] = second compound 0.316 µM, first compound 0.0316 µM
[9] = second compound 0.316 µM, first compound 0.1 µM
[10] = second compound 1 µM, first compound 0.0316 µM
[11] = second compound 1 µM, first compound 0.1 µM
[12] = second compound 3.16 µM, first compound 0.0316 µM
[13] = second compound 3.16 µM, first compound 0.1 µM
[14] = second compound 10 µM, first compound 0.0316 µM
[15] = second compound 10 µM, first compound 0.1 µM
[16] = second compound 0.1 µM, first compound 0.316 µM
[17] = second compound 0.1 µM, first compound 1 µM
[18] = second compound 0.1 µM, first compound 3.16 µM
[19] = second compound 0.1 µM, first compound 10 µM
[20] = second compound 0.316 µM, first compound 0.316 µM
[21] = second compound 0.316 µM, first compound 1 µM
[22] = second compound 0.316 µM, first compound 3.16 µM
[23] = second compound 0.316 µM, first compound 10 µM
[24] = second compound 1 µM, first compound 0.316 µM
[25] = second compound 1 µM, first compound 1 µM
[26] = second compound 1 µM, first compound 3.16 µM
[27] = second compound 1 µM, first compound 10 µM
[28] = second compound 3.16 µM, first compound 0.316 µM
[29] = second compound 3.16 µM, first compound 1 µM
[30] = second compound 3.16 µM, first compound 3.16 µM
[31] = second compound 3.16 µM, first compound 10 µM
[32] = second compound 10 µM, first compound 0.316 µM
[33] = second compound 10 µM, first compound 1 µM
[34] = second compound 10 µM, first compound 3.16 µM
[35] = second compound 10 µM, first compound 10 µM
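Further: spheroids exposed to agents for 7 days.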

`Cn1ncnc1[C@H]1c2n[nH]c(=O)c3cc(F)cc(c23)N[C@@H]1c1ccc(F)cc1` + CC1OCC2(CCN(c3cnc(Sc4ccnc(N)c4Cl)c(N)n3)CC2)C1N was tested, and the IC50 [1] was greater than 100 nM, the IC50 [2] was greater than 100 nM and the IC50 [3] was greater than 100 nM. It also gave an IC50 [4] greater than 100 nM, an IC50 [5] greater than 100 nM and a viability, T/C (second compound 0.1 µM, first compound 0.000316 µM) of 103%. It also gave a viability, T/C (second compound 0.1 µM, first compound 0.001 µM) of 95.2%, a viability, T/C (second compound 0.1 µM, first compound 0.00316 µM) of 93.4% and a viability, T/C (second compound 0.1 µM, first compound 0.01 µM) of 91.6%. For the same compound, the viability, T/C [6] was 99.2%, the viability, T/C [7] was 90.3% and the viability, T/C (second compound 0.316 µM, first compound 0.000316 µM) was 97.5%. It also gave a viability, T/C (second compound 0.316 µM, first compound 0.001 µM) of 87.3%, a viability, T/C (second compound 0.316 µM, first compound 0.00316 µM) of 87.8% and a viability, T/C (second compound 0.316 µM, first compound 0.01 µM) of 85.2%. It also gave a viability, T/C [8] of 92.5%, a viability, T/C [9] of 81% and a viability, T/C (second compound 1 µM, first compound 0.000316 µM) of 88.4%. For the same compound, the viability, T/C (second compound 1 µM, first compound 0.001 µM) was 89.5%, the viability, T/C (second compound 1 µM, first compound 0.00316 µM) was 83.5% and the viability, T/C (second compound 1 µM, first compound 0.01 µM) was 86.3%. It also gave a viability, T/C [10] of 82.1%, a viability, T/C [11] of 80% and a viability, T/C (second compound 3.16 µM, first compound 0.000316 µM) of 79.5%. For the same compound, the viability, T/C (second compound 3.16 µM, first compound 0.001 µM) was 80.4%, the viability, T/C (second compound 3.16 µM, first compound 0.00316 µM) was 81% and the viability, T/C (second compound 3.16 µM, first compound 0.01 µM) was 76.3%. The viability, T/C [12] was 75.5%, the viability, T/C [13] was 78.2% and the viability, T/C (second compound 10 µM, first compound 0.000316 µM) was 70.9%. The viability, T/C (second compound 10 µM, first compound 0.001 µM) was 72.7%, the viability, T/C (second compound 10 µM, first compound 0.00316 µM) was 67.2% and the viability, T/C (second compound 10 µM, first compound 0.01 µM) was 63.9%. It also gave a viability, T/C [14] of 61.1% and a viability, T/C [15] of 61.2%.

`Cn1nccc1Nc1nccc(-c2cc3c(s2)C(C)(C)N(CCN2CCOCC2)C3=O)n1` + CC1OCC2(CCN(c3cnc(Sc4ccnc(N)c4Cl)c(N)n3)CC2)C1N gave an IC50 [1] of 2330 nM, an IC50 [2] of 1070 nM and an IC50 [3] of 661 nM. It also gave an IC50 [4] of 341 nM, an IC50 [5] of 209 nM and a viability, T/C [6] of 98.5%. For the same compound, the viability, T/C [7] was 83.1%, the viability, T/C [16] was 69.8% and the viability, T/C [17] was 58.7%. It also gave a viability, T/C [18] of 47.5%, a viability, T/C [19] of 36.7% and a viability, T/C [8] of 88.8%. For the same compound, the viability, T/C [9] was 78.1%, the viability, T/C [20] was 60.4% and the viability, T/C [21] was 51.8%. It also gave a viability, T/C [22] of 42.1%, a viability, T/C [23] of 36.3% and a viability, T/C [10] of 81.2%. For the same compound, the viability, T/C [11] was 81.9%, the viability, T/C [24] was 60.1% and the viability, T/C [25] was 45.3%. The viability, T/C [26] was 37.1%, the viability, T/C [27] was 35.9% and the viability, T/C [12] was 74.7%. The viability, T/C [13] was 65.5%, the viability, T/C [28] was 52.1% and the viability, T/C [29] was 36.4%. For the same compound, the viability, T/C [30] was 33.7%, the viability, T/C [31] was 31.5% and the viability, T/C [14] was 62.7%. For the same compound, the viability, T/C [15] was 63.3%, the viability, T/C [32] was 42.8% and the viability, T/C [33] was 31.9%. For the same compound, the viability, T/C [34] was 28.9% and the viability, T/C [35] was 28.3%.

Compound `COC(=O)c1ccc2c(C(=Nc3ccc(N(C)C(=O)CN4CCN(C)CC4)cc3)c3ccccc3)c(O)[nH]c2c1` + CC1OCC2(CCN(c3cnc(Sc4ccnc(N)c4Cl)c(N)n3)CC2)C1N has an IC50 [1] of 2340 nM, an IC50 [2] of 2180 nM and an IC50 [3] of 2250 nM. The IC50 [4] was 2010 nM, the IC50 [5] was 1270 nM and the viability, T/C [6] was 104%. The viability, T/C [7] was 103%, the viability, T/C [16] was 89.3% and the viability, T/C [17] was 85.9%. For the same compound, the viability, T/C [18] was 37.4%, the viability, T/C [19] was 0.19% and the viability, T/C [8] was 102%. It also gave a viability, T/C [9] of 91%, a viability, T/C [20] of 84.8% and a viability, T/C [21] of 81.3%. The viability, T/C [22] was 35.4%, the viability, T/C [23] was 0.2% and the viability, T/C [10] was 79.2%. It also gave a viability, T/C [11] of 84.6%, a viability, T/C [24] of 93.5% and a viability, T/C [25] of 75.3%. The viability, T/C [26] was 38.8%, the viability, T/C [27] was 0.16% and the viability, T/C [12] was 76%. The viability, T/C [13] was 82.4%, the viability, T/C [28] was 83.2% and the viability, T/C [29] was 69.2%. For the same compound, the viability, T/C [30] was 36.9%, the viability, T/C [31] was 0.37% and the viability, T/C [14] was 66%. The viability, T/C [15] was 73.2%, the viability, T/C [32] was 68.5% and the viability, T/C [33] was 60.3%. It also gave a viability, T/C [34] of 11.7% and a viability, T/C [35] of 1.38%.

`COC(=O)c1ccc2c(C(=Nc3ccc(N(C)C(=O)CN4CCN(C)CC4)cc3)c3ccccc3)c(O)[nH]c2c1` + C=CC(=O)N1CCN(c2nc(OCC3CCCN3C)nc3c2CCN(c2cccc4cccc(C)c24)C3)CC1CC#N was tested, and the IC50 (curve of first compound, second compound 0.0316 µM) was 2970 nM, the IC50 [1] was 2800 nM and the IC50 [2] was 2340 nM. For the same compound, the IC50 [3] was 1480 nM, the IC50 [4] was less than 31.6 nM and the viability, T/C (second compound 0.0316 µM, first compound 0.0316 µM) was 102%. It also gave a viability, T/C (second compound 0.0316 µM, first compound 0.1 µM) of 95.3%, a viability, T/C (second compound 0.0316 µM, first compound 0.316 µM) of 91.1% and a viability, T/C (second compound 0.0316 µM, first compound 1 µM) of 91.5%. The viability, T/C (second compound 0.0316 µM, first compound 3.16 µM) was 47.6%, the viability, T/C (second compound 0.0316 µM, first compound 10 µM) was 0.22% and the viability, T/C [6] was 104%. The viability, T/C [7] was 98.8%, the viability, T/C [16] was 92.6% and the viability, T/C [17] was 89.4%. It also gave a viability, T/C [18] of 45.1%, a viability, T/C [19] of 0.36% and a viability, T/C [8] of 99.5%. It also gave a viability, T/C [9] of 100%, a viability, T/C [20] of 93.2% and a viability, T/C [21] of 90.8%. For the same compound, the viability, T/C [22] was 35.5%, the viability, T/C [23] was 0.16% and the viability, T/C [10] was 93.8%. It also gave a viability, T/C [11] of 91.3%, a viability, T/C [24] of 85.2% and a viability, T/C [25] of 68.7%. The viability, T/C [26] was 15.4%, the viability, T/C [27] was 0.41% and the viability, T/C [12] was 26.5%. For the same compound, the viability, T/C [13] was 20.2%, the viability, T/C [28] was 21.8% and the viability, T/C [29] was 5.53%. For the same compound, the viability, T/C [30] was 1.94% and the viability, T/C [31] was 0.67%.

`CC(=O)OC12COC1CC(O)C1(C)C(=O)C(O)C3=C(C)C(OC(=O)C(O)C(NC(=O)OC(C)(C)C)c4ccccc4)CC(O)(C(OC(=O)c4ccccc4)C21)C3(C)C` (configuration not stated) was tested, and the viability, T/C (compound 0.01 µM) was 101% [middle of 5 runs], the viability, T/C (compound 0.0316 µM) was 97.7% [middle of 5 runs] and the viability, T/C (compound 0.1 µM) was 89.3% [middle of 5 runs]. For the same compound, the viability, T/C (compound 0.316 µM) was 89% [middle of 5 runs], the viability, T/C (compound 1 µM) was 83.2% [middle of 5 runs] and the viability, T/C (compound 3.16 µM) was 80.8% [middle of 5 runs]. It also gave an IC50 (curve of compound) greater than 3160 nM.
